# Assay results from patent US10752612B2, “PLK4 inhibitors” (LUDWIG INSTITUTE FOR CANCER RESEARCH LTD, priority 2015, dated 2020).
# Target: T1, human Plk4 kinase domain (aa 2-275) (Homo sapiens, UniProt O00444)
# T1 construct: purified 6×His-tagged human Plk4 kinase domain (aa 2-275); 6xHis; made in house; host or cells: E. coli
# T1 sequence (O00444 2-275): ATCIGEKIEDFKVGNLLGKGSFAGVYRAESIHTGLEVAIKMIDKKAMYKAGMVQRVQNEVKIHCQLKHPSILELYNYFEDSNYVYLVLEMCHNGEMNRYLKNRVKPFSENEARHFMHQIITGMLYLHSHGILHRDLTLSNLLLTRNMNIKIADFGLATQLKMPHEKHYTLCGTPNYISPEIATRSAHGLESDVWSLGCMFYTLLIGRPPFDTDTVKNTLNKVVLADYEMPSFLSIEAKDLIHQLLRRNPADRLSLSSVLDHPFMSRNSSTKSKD
# Test: Plk4 kinase assay (ADP-Glo)
# Format: biochemical
# Conditions: Table 1
# Protocol: Kinase assays. […] The Plk4 concentration in the final reaction was 2.5-10 nM with a final pH of 8.0. […] Reactions were allowed to proceed for 4-16 hours at 25° C. Detection was performed using ADP-Glo reagent (Promega), following manufacturer's instructions. Luminescence was measured on an Infinite M1000 plate reader (Tecan). Data were fit using Prism (GraphPad) and Kis were calculated from IC50 data using the Cheng and Prusoff equation (37) or the Copeland formalism for tight-binding inhibitors (38).
row,IC50,Compound
1,> 1000 nM,CCc1c(Nc2cc(C)[nH]n2)nc(Sc2ccc(NC(=O)C3CC3)cc2)nc1N1CCN(C)CC1
2,< 1000 nM,CCNc1nc(Sc2ccc(NC(=O)C3CC3)cc2)nc(Nc2cc(C)[nH]n2)c1C
3,< 1000 nM,CCCC(=O)Nc1ccc(Sc2nc(Nc3cc(C)[nH]n3)c(C)c(N3CCN(C)CC3)n2)cc1
4,< 1000 nM,Cc1cc(Nc2nc(Sc3ccc(NC(=O)C4CC4)cc3)nc(NC(C)C)c2C)n[nH]1
5,< 1000 nM,CCN(C)c1nc(Sc2ccc(NC(C)=O)cc2)nc(Nc2cc(C)[nH]n2)c1C
6,< 1000 nM,CC(=O)Nc1ccc(Sc2nc(Nc3cc(C)[nH]n3)c(C)c(N(C)C)n2)cc1
7,< 1000 nM,CC(=O)Nc1ccc(Sc2nc(Nc3cc(C)[nH]n3)c(C)c(N3CCCCC3)n2)cc1
8,> 1000 nM,COc1c(Nc2cc(C)[nH]n2)nc(Sc2ccc(NC(=O)C3CC3)cc2)nc1N1CCN(C(C)(C)C)CC1
9,< 1000 nM,COCCN(C)c1nc(Sc2ccc(NC(C)=O)cc2)nc(Nc2cc(C)[nH]n2)c1C
10,< 1000 nM,COc1c(Nc2cc(C)[nH]n2)nc(Sc2ccc(NC(C)=O)cc2)nc1NC1CCNCC1
11,< 1000 nM,CCc1cc(Nc2nc(SC)nc(N3CCN(CCN(C)C)CC3)c2OC)n[nH]1
12,< 1000 nM,CCc1cc(Nc2nc(SC)nc(N3CCN(CCN(C)C)CC3)c2C)n[nH]1
13,< 1000 nM,COc1c(Nc2cc(C)[nH]n2)nc(Sc2ccc(NC(C)=O)nc2)nc1N1CCOCC1
14,< 1000 nM,COc1c(Nc2cc(C)[nH]n2)nc(Sc2ccc(S(=O)(=O)C(C)(C)c3cccc([N+](=O)[O-])c3F)cc2F)nc1N1CCN(C(C)=O)CC1
15,< 1000 nM,COc1c(Nc2cc(C)[nH]n2)nc(Sc2ccc(S(=O)(=O)Cc3cccc([N+](=O)[O-])c3F)cc2F)nc1N1CCC(NC(C)=O)CC1
16,< 1000 nM,COc1c(Nc2cc(C)[nH]n2)nc(Sc2ccc(S(=O)(=O)C3(c4cccc([N+](=O)[O-])c4F)CC3)cc2F)nc1N1CCC(CN(C)C)CC1
17,< 1000 nM,COc1c(Nc2cc(C)[nH]n2)nc(Sc2ccc(S(=O)(=O)C3(c4cccc([N+](=O)[O-])c4F)CC3)cc2F)nc1N1CCC(C(N)=O)CC1
18,< 1000 nM,COc1c(Nc2cc(C)[nH]n2)nc(Sc2ccc(S(=O)(=O)C(C)(C)c3c(F)c(F)cc(F)c3F)cc2F)nc1N1CCC(N)CC1
19,< 1000 nM,COc1c(Nc2cc(C)[nH]n2)nc(Sc2ccc(S(=O)(=O)Cc3cccc([N+](=O)[O-])c3F)cc2F)nc1N1CCC(CC(N)=O)CC1
20,< 1000 nM,COc1c(Nc2cc(C)[nH]n2)nc(Sc2ccc(S(=O)(=O)C3(c4cccc([N+](=O)[O-])c4F)CC3)cc2F)nc1N1CCC(CN)CC1

row,IC50,Compound
1,< 1000 nM,COc1c(Nc2cc(C)[nH]n2)nc(Sc2ccc(S(=O)(=O)C(C)(C)c3cccc([N+](=O)[O-])c3F)cc2F)nc1N1CCN(CCNC(=O)C(F)(F)F)CC1
2,< 1000 nM,COc1c(Nc2cc(C)[nH]n2)nc(Sc2cccc(NC(C)=O)c2)nc1N1CCN(CCN(C)C)CC1
3,< 1000 nM,COc1c(Nc2cc(C)[nH]n2)nc(Sc2cccc(NC(C)=O)c2)nc1N1CCOCC1
4,< 1000 nM,COc1c(Nc2cc(C)[nH]n2)nc(Sc2ccc(NC(C)=O)cc2)nc1N1CCN(CC(=O)N2CCOCC2)CC1
5,< 1000 nM,COc1c(Nc2cc(C)[nH]n2)nc(Sc2ccc(NC(C)=O)cc2)nc1N1CCN(CC(=O)N2CCCCC2)CC1
6,< 1000 nM,Cc1cc(Nc2nc(Sc3ccc([N+](=O)[O-])cc3)nc3c2CCC32CCN(C(=O)C(C)(C)C)CC2)n[nH]1
7,< 1000 nM,Cc1cc(Nc2nc(Sc3ccc([N+](=O)[O-])cc3)nc3c2CCC32CCNCC2)n[nH]1
8,< 1000 nM,CC(=O)Nc1ccc(Sc2nc(Nc3cc(C)[nH]n3)c3c(n2)C2(CC3)CCN(C(=O)C(C)(C)C)CC2)cc1
9,< 1000 nM,COc1c(Nc2cc(C)[nH]n2)nc(Sc2ccc([N+](=O)[O-])cc2)nc1N1CCN(CCN(C)C)CC1
10,< 1000 nM,COc1c(Nc2cc(C)[nH]n2)nc(Sc2ccc(NC(C)=O)cc2)nc1C1=CCNCC1
11,< 1000 nM,COc1c(Nc2cc(C)[nH]n2)nc(Sc2ccc(NC(C)=O)cc2)nc1N1CCN(CCN(C)C)C(C)C1 (stereo not drawn)
12,< 1000 nM,COc1c(Nc2cc(C)[nH]n2)nc(Sc2ccc(NC(C)=O)cc2)nc1C1=CCN(CC(=O)N(C)C)CC1
13,< 1000 nM,COc1c(Nc2cc(C)[nH]n2)nc(Sc2ccc(NC(C)=O)cc2)nc1C1=CCN(CCN(C)C)CC1
14,< 1000 nM,CC(=O)Nc1ccc(Sc2nc(Nc3cc(C)[nH]n3)cc(N3CCN(CCN(C)C)CC3C)n2)cc1 (stereo not drawn)
15,< 1000 nM,COc1c(Nc2cc(C)[nH]n2)nc(Sc2ccc(NC(C)=O)cc2)nc1C1=CCN(C)CC1
16,< 1000 nM,CC(=O)Nc1ccc(Sc2nc(Nc3cc(C)[nH]n3)c3c(n2)C2(CC3)CCN(CCN(C)C)CC2)cc1
17,< 1000 nM,Cc1cc(Nc2nc(Sc3ccc([N+](=O)[O-])cc3)nc3c2CCC32CCN(CCN(C)C)CC2)n[nH]1
18,< 1000 nM,Cc1cc(Nc2nc(Sc3ccc(N)cc3)nc3c2CCC32CCN(CCN(C)C)CC2)n[nH]1
19,< 1000 nM,COc1c(Nc2cc(C)[nH]n2)nc(Sc2ccc(NC(C)=O)cc2)nc1N1CCN(CCN2CCCC2)CC1
20,< 1000 nM,CCN(C)CCN1CCN(c2nc(Sc3ccc(NC(C)=O)cc3)nc(Nc3cc(C)[nH]n3)c2OC)CC1

row,IC50,Compound
1,< 1000 nM,COc1c(Nc2cc(C)[nH]n2)nc(Sc2ccc(NC(C)=O)cc2)nc1N1CCN(CCN)CC1
2,< 1000 nM,CCN(CC)CCN1CCN(c2nc(Sc3ccc(NC(C)=O)cc3)nc(Nc3cc(C)[nH]n3)c2OC)CC1
3,< 1000 nM,COc1c(Nc2cc(C)[nH]n2)nc(Sc2ccc(NC(C)=O)cc2)nc1N1CCN(CCN2CCNCC2)CC1
4,> 1000 nM,COC(=O)Cc1cc(Nc2nc(SC)nc(N3CCN(CCN(C)C)CC3)c2OC)n[nH]1
5,> 1000 nM,COc1c(Nc2cc(CC(=O)O)[nH]n2)nc(SC)nc1N1CCN(CCN(C)C)CC1
6,> 1000 nM,CNC(=O)Cc1cc(Nc2nc(SC)nc(N3CCN(CCN(C)C)CC3)c2OC)n[nH]1
7,100 to 1000 nM,COc1c(Nc2cc(C)[nH]n2)nc(Sc2ccc(NC(C)=O)cc2)nc1N1CCN(CCN2CCC(O)CC2)CC1
8,100 to 1000 nM,COc1c(Nc2cc(C)[nH]n2)nc(Sc2ccc(NC(C)=O)cc2)nc1N1CCC(CCN2CCCCC2)CC1
9,< 1000 nM,COc1c(Nc2cc(C)[nH]n2)nc(Sc2ccc(NC(C)=O)cc2)nc1N1CCC(CC(=O)O)CC1
10,< 1000 nM,COc1c(Nc2cc(C)[nH]n2)nc(Sc2ccc(NC(C)=O)cc2)nc1N1CCN(CCN2CCN(C)CC2)CC1
11,< 1000 nM,COC(=O)CC1CCN(c2nc(Sc3ccc(NC(C)=O)cc3)nc(Nc3cc(C)[nH]n3)c2OC)CC1
12,< 1000 nM,COc1c(Nc2cc(C)[nH]n2)nc(Sc2ccc(NC(C)=O)cc2)nc1N1CCN(C(N)=O)CC1
13,< 1000 nM,COc1c(Nc2cc(C)[nH]n2)nc(Sc2ccc(NC(C)=O)cc2)nc1N1CCN(CC(=O)O)CC1
14,< 1000 nM,COc1c(Nc2cc(C)[nH]n2)nc(Sc2ccc(NC(C)=O)cc2)nc1N1CCN(CC(N)=O)CC1
15,< 1000 nM,COc1c(Nc2cc(C)[nH]n2)nc(Sc2ccc(NC(C)=O)cc2)nc1N1CC2CCC(C1)N2CCN(C)C
16,< 1000 nM,COc1c(Nc2cc(C)[nH]n2)nc(Sc2ccc(NC(C)=O)cc2)nc1N1CCC(CC(N)=O)CC1
17,< 1000 nM,COc1c(Nc2cc(C)[nH]n2)nc(Sc2ccc(NC(C)=O)cc2)nc1N1CCN(C(=N)NO)CC1
18,< 1000 nM,COc1c(Nc2cc(C)[nH]n2)nc(Sc2ccc(NC(C)=O)cc2)nc1N1CCN(CCN(C)OC)CC1
19,< 1000 nM,COc1c(Nc2cc(C)[nH]n2)nc(Sc2ccc(NC(C)=O)cc2)nc1N1CCN(CCNC(N)=O)CC1
20,< 1000 nM,COc1c(Nc2cc(C)[nH]n2)nc(Sc2ccc(NC(C)=O)cc2)nc1N1CC(C)N(CCN(C)C)C(C)C1 (stereo not drawn)
